This note sets out measurements from PMC7108868, “Agonist-mediated switching of ion selectivity in TPC2 differentially promotes lysosomal function” (eLife, 2020).

What all share (assay type): cell-based
The target of experiment [1] is T1, TPC2 (Homo sapiens, UniProt Q8NHX9, L11A/L12A).
T1 construct: gene TPCN2; hTPC2^L11A/L12A (plasma membrane targeted)
The experiment is described as follows: Fura-2 Ca2+ imaging, block of TPC2-A1-N response at […].

Experiment [2] addresses T2, TPC2 (Homo sapiens, UniProt Q8NHX9).
T2 construct: gene TPCN2; hTPC2, C-terminal YFP
In words: endo-lysosomal patch-clamp (also FLIPR Ca2+ assay, EC50 […]). A general note: In patch-clamp work, channel activity is measured electrically.

Experiment [3] has as its target T3, TPC2 (Mus musculus, UniProt Q8BWC0). In words: GCaMP Ca2+ imaging and endo-lysosomal patch-clamp, […]. Also on record: gene Tpcn2; MmTPC2-GCaMP6s; mTPC2.
The target of experiment [4] is T3, TPC2. The experiment is described as follows: endo-lysosomal patch-clamp, […], with TPC2 KO control. Further details: gene Tpcn2; mTPC2; endogenous TPC2 in alveolar macrophages.
In experiment [5] the target is T2, TPC2. In words: endo-lysosomal patch-clamp (also FLIPR Ca2+ assay, EC50 […]). The source holds these as a separate data set.

Like-named read-outs stand apart in the source and are kept apart here.

T1 sequence (Q8NHX9 whole entry L11A/L12A): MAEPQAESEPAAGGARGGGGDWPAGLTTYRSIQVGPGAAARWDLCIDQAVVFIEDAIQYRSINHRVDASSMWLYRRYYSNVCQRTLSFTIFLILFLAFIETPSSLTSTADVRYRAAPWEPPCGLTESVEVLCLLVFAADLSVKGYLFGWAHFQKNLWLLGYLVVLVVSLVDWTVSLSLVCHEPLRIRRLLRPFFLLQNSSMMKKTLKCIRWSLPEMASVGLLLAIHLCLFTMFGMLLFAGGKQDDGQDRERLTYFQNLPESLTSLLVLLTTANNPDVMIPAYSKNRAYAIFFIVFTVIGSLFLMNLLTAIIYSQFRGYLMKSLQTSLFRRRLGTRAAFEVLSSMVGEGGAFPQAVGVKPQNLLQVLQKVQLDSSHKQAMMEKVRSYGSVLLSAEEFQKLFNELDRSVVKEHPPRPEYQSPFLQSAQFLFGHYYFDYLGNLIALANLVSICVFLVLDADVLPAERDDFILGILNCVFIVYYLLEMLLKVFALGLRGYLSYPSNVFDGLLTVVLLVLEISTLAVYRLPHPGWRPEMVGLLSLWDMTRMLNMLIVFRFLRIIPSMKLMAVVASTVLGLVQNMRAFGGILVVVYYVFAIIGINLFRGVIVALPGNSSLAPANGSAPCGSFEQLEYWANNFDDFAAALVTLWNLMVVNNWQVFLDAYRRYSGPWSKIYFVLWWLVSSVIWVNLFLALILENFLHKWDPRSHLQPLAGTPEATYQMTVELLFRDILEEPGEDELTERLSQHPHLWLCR
T3 sequence (Q8BWC0 whole entry): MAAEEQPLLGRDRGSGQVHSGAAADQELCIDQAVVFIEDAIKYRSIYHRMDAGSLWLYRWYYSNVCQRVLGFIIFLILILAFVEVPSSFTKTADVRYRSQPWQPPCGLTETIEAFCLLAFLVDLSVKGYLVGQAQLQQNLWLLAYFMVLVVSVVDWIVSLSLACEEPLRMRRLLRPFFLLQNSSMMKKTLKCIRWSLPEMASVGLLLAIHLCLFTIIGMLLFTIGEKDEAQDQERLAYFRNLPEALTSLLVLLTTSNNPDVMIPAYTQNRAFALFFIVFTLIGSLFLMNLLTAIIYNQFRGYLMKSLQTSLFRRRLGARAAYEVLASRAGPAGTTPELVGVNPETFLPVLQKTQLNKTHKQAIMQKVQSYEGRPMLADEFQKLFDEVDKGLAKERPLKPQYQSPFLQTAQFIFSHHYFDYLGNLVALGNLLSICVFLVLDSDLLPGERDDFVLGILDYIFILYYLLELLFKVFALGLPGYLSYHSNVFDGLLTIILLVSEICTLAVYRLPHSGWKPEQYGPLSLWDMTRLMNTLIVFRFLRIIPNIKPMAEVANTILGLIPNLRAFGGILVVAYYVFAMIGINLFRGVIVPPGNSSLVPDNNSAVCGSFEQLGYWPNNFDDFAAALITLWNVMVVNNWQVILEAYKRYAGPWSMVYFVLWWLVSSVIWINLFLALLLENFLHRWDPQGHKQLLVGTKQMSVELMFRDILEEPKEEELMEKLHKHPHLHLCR
T2 sequence (Q8NHX9 whole entry): as the sequence (Q8NHX9 whole entry L11A/L12A) above, with A11L, A12L counted along it

In the case of `OCCN1CCN(CCCN2c3ccccc3Sc3ccc(C(F)(F)F)cc32)CC1` [Flu, fluphenazine], the “Fura-2 Ca2+ imaging, block of TPC2-A1-N response at 10 μM” value on TPC2 [1] is “responses to TPC2-A1-N were selectively blocked by the recently identified TPC2 blockers tetrandrine (Tet), raloxifene (Ral), and fluphenazine (Flu)”.
The same measure, in the same setting: to `O=C(c1ccc(OCCN2CCCCC2)cc1)c1c(-c2ccc(O)cc2)sc2cc(O)ccc12` [Ral, raloxifene] belongs “responses to TPC2-A1-N were selectively blocked by the recently identified TPC2 blockers tetrandrine (Tet), raloxifene (Ral), and fluphenazine (Flu)”.
Compound `N#CC(C(=O)Nc1ccc(C(F)(F)F)cc1)=C(O)c1cc(Cl)cc(Cl)c1` [TPC2-A1-N, 2-Cyano-3-(3,5-dichlorophenyl)−3-hydroxy-N-(4-(trifluoromethyl)phenyl)acrylamide] gave an EC50 at TPC2 [2] of 600 nM. In addition, the “GCaMP Ca2+ imaging and endo-lysosomal patch-clamp, 10 μM” value on TPC2 [3] is listed as “mouse TPC2 fused to GCaMP6 (MmTPC2^GCaMP) confirmed that TPC2-A1-N evoked larger responses than TPC2-A1-P”.
Turning to `Cc1c(C(=O)O)cc(-c2cc(Br)ccc2OC(F)(F)F)n1CC1CCCCC1` [TPC2-A1-P, 5-(5-Bromo-2-(trifluoromethoxy)phenyl)−1-(cyclohexylmethyl)−2-methyl-1H-pyrrole-3-carboxylic acid], the “endo-lysosomal patch-clamp, 10 μM, with TPC2 KO control” value on TPC2 [4] was “both TPC2-A1-N and TPC2-A1-P evoked measurable endogenous TPC2-like currents in macrophages from wild-type animals”. In addition, the EC50 at TPC2 [5] worked out at 600 nM.
`COc1ccc2cc1Oc1ccc(cc1)C[C@H]1c3cc(c(OC)cc3CCN1C)Oc1c(OC)c(OC)cc3c1[C@H](C2)N(C)CC3` [Tet, tetrandrine]: the “Fura-2 Ca2+ imaging, block of TPC2-A1-N response at 10 μM” value on TPC2 [1] was “responses to TPC2-A1-N were selectively blocked by the recently identified TPC2 blockers tetrandrine (Tet), raloxifene (Ral), and fluphenazine (Flu)”.

What is called EC50 is the concentration that produces a half-maximal response. A low value points to greater potency.
